This series is described as follows: gradient 5% acetonitrile 3 min, to 50% in 2 min, to 85% in 15 min, held 3 min, 100 µL/min. As to conditions: column: Zorbax Extend-C18 2.1 x 50 mm; eluents: water / acetonitrile, 0.1% formic acid. In outline:
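Over 3 months, pure standards in mixtures of ~100 molecules were run by HPLC coupled to a quadrupole time-of-flight mass spectrometer in positive and negative ionization mode. The column was a Zorbax Extend-C18 (2.1 × 50 mm, 1.8 μm) at 100 μL/min, eluted with water and acetonitrile each holding 0.1% formic acid, with 40 μL dead and 900 μL dwell volumes. Retention time was determined from adduct peaks chosen by software and checked manually.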
For `CCc1ccc(OCC(=O)Nc2nnc(C3CC(=O)N(c4ccc(F)cc4)C3)o2)cc1` (centres undefined), the RP-LC retention time was determined as 849 s.

Turning to `Cc1nc2ccccc2nc1N1CCCC1`, the RP-LC retention time stood at 680 s.

On to `CCCc1nnc(SCC(=O)NC2CCCCCC2)n1-n1cccc1`, for which the RP-LC retention time is 831 s.

As for `O=C(c1c(F)cccc1Cl)N1CCc2nc(-c3ccc(F)cc3)ncc2C1`, the RP-LC retention time came out at 1020 s.

The compound `O=C(c1cc(C2CC2)[nH]n1)N1CC(n2cc(COc3ccc(F)cc3)nn2)C1` showed an RP-LC retention time of 735 s.

The compound `CCOc1ccccc1NC(=O)CN1C(=O)C(C)(C)c2ccccc21` returned an RP-LC retention time of 976 s.

Compound `CCOc1ccc2nc(NC(=O)C3CCN(S(=O)(=O)c4cn(CC)cn4)CC3)sc2c1` gave an RP-LC retention time of 809 s.

Regarding `COc1cccc(CNC(=O)Cn2c(=O)cc(-c3nc(C(C)C)no3)c3ccccc32)c1`, the RP-LC retention time worked out at 944 s.

For the compound `O=C(CCc1conc1-c1ccc(F)cc1)NCc1ccc(F)cc1`, the RP-LC retention time was 886 s.

Compound `CC(C)n1c(SCC(=O)N(C)C)nnc1-c1ccc2c(c1)OCCCO2` showed an RP-LC retention time of 691 s.

With `Cn1cc(-c2nc(C(=O)Nc3ccc(F)cc3Cl)cs2)c2cccnc21`, the RP-LC retention time came to 1210 s.

Regarding `Cc1ccccc1NC(=O)N1CCC2(CC1)Nc1ccccc1-n1cccc12`, the RP-LC retention time amounted to 982 s.

Compound `CCOCCCNC(=O)CN1C(=O)C2CCCCN2c2ccc(C(=O)N3CCCC3)cc21` (centres undefined) yielded an RP-LC retention time of 694 s.

Turning to `O=C(Cn1nc(-c2ccco2)ccc1=O)NCCOc1cc(N2CCCCC2)ncn1`, the RP-LC retention time is 588 s.

In turn, `Cc1nnc(C2CC3(CCN(Cc4ccccc4)CC3)CN2Cc2ccccc2)o1` (centres undefined) returned an RP-LC retention time of 636 s.

In the case of `CCOC(=O)C(C)Oc1cccc2c(=O)n(CC(=O)Nc3ccc([N+](=O)[O-])cc3)ccc12` (centres undefined), the RP-LC retention time stood at 842 s.

`CCOC(=O)c1noc2ncnc(N(CC)c3ccccc3)c12` came in with an RP-LC retention time of 948 s.

The compound `Cc1c(Cl)cccc1S(=O)(=O)N1CCc2nc(-c3ccccc3)ncc2C1` returned an RP-LC retention time of 1210 s.

Regarding `Cc1noc(C)c1-c1ccc(S(=O)(=O)NC2CCCc3ccccc32)cc1` (centres undefined), the RP-LC retention time was found to be 1040 s.

`CCCc1nc(NC(C)c2ccc(OC)c(OC)c2)ncc1C(=O)O` (centres undefined) came in with an RP-LC retention time of 750 s.

In turn, `CCc1n[nH]c(CC2CCN(C(=O)C3(c4ccccc4)CC3)CC2)n1` displayed an RP-LC retention time of 608 s.

In turn, `CCOC(=O)CNC(=O)N1CCN(Cc2nc3cccnc3n2-c2ccc(C)cc2)CC1` gave an RP-LC retention time of 611 s.

In turn, `Cc1ccc(NC(=O)N2CCC(n3c(-c4ccoc4)nc4cccnc43)C2)cc1C` (centres undefined) returned an RP-LC retention time of 762 s.

`C#CCSc1nc(=O)n2ccc(C)cc2n1` returned an RP-LC retention time of 645 s.

With `CCN1C(=O)c2ccccc2Oc2ccc(C(=O)NCCC3=CCCCC3)cc21`, the RP-LC retention time came out at 639 s.

`COc1ccc(-c2nnc(-c3cc(S(=O)(=O)NCC(=O)O)ccc3Cl)o2)cc1` registered an RP-LC retention time of 772 s.

For the compound `O=C(CCc1ccc2cc[nH]c2c1)NCc1ccccc1`, the RP-LC retention time stood at 794 s.

The compound `c1ccc(-n2nnnc2Oc2ccc(CNCCc3c[nH]c4ccccc34)cc2)cc1` returned an RP-LC retention time of 748 s.

Regarding `Cn1nnc2ccc(-c3noc(Cc4cccc(F)c4)n3)cc21`, the RP-LC retention time is 921 s.

`CC1CCCN(c2ccc(NC(=O)c3cccs3)cc2C(=O)O)C1` (centres undefined) gave an RP-LC retention time of 666 s.

`CCNC(=O)C1CCCN(C(=O)c2cc(C)cc(C)c2)C1` (centres undefined) returned an RP-LC retention time of 718 s.

`Cc1ccc(NC(=O)c2cc(C)n3nccc3n2)cc1C`: the RP-LC retention time is 1030 s.

Regarding `COc1ccccc1CCC(=O)N1CCc2cc(-c3ccno3)ccc21`, the RP-LC retention time came to 1040 s.

For the compound `COc1cccc(-c2nc(C3CCN(S(=O)(=O)c4ccc(F)cc4)CC3)no2)c1`, the RP-LC retention time turned out to be 1100 s.

Source of the values: the METLIN SMRT retention time set (Domingo-Almenara et al. 2019).
